# Source: article PMC9496321, “6-Furopyridine Hexamethylene Amiloride Is a Non-Selective P2X7 Receptor Antagonist” (Biomolecules, 2022)
# Tests used:
# [1] = molecular target: T1, P2X7 (Homo sapiens, UniProt Q99572); test: ATP-induced YO-PRO-1 uptake into human T cells (PBMCs); assay type: cell-based; parameters: Human peripheral blood mononuclear cells (PBMCs) were pre-incubated with DMSO (vehicle) or 30 μM 6-FPHMA; endogenous in cells; host or cells: cryopreserved human PBMCs (CD3+, CD4+, CD8+ T cells), four donors; conditions: 30 μM compound, 1 mM ATP
# T1 sequence (Q99572 1-595): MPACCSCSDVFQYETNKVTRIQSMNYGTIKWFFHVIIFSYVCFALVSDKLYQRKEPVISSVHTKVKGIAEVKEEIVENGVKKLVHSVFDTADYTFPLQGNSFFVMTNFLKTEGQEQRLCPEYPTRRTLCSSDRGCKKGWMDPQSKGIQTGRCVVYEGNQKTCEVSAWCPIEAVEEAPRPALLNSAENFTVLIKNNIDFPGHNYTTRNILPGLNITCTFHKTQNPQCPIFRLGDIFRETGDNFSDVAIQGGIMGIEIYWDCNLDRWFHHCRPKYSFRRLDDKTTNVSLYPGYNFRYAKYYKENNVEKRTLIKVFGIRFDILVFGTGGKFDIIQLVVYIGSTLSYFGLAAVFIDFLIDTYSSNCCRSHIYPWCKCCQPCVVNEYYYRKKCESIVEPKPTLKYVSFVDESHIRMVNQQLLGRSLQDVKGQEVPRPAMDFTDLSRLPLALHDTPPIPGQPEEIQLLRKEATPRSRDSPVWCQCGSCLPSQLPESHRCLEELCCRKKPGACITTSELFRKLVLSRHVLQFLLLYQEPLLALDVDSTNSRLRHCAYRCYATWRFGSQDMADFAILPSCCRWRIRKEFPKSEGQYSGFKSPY
# Method: ATP-mediated uptake assays were conducted as described with either ethidium bromide or YO-PRO-1 iodide. Briefly, RPMI8226, HEK-hP2X7, HEK-mP2X7, HEK-cP2X7 or cryopreserved human peripheral blood mononuclear cells (PBMCs) were washed thrice with LDM (300× g, 5 min), resuspended in LDM and 1 × 10^6 cells were added to individual tubes. Cells were pre-incubated in the absence of compound (37 °C, 5 min) or in the presence of compound or vehicle (DMSO) (37 °C, 15 min) as indicated. […] An equal volume of ice-cold Mg^2+ stop solution was added and cells centrifuged (300× g, 5 min). Cells were washed twice in LDM (300× g, 5 min), resuspended and data were collected with an LSR Fortessa X-20 flow cytometer. MFI of ethidium^+ or YO-PRO-1^2+ was determined using FlowJo.
# [2] = system: hP2X7-mediated IL-1β release; test: Whole blood IL-1β release assay; assay type: cell-based; conditions: 30 μM compound, 6 mM ATP, LPS-primed human whole blood
# Method: Whole blood IL-1β release assays were conducted as described. Briefly, whole human blood was mixed with an equal volume of serum-free RPMI-1640 medium containing LPS (200 ng/mL), added to a flat-bottom 96-well plate and incubated (37 °C, 95% air/5% CO2, 105 min). Compounds (30 μM) or vehicle (DMSO) were added to respective wells and incubated (37 °C, 95% air/5% CO2, 15 min). […] Plates were centrifuged (700× g, 10 min) with the resulting supernatants collected and stored at −80 °C. hIL-1β concentrations were determined using a Human IL-1β ELISA (Thermo Fisher Scientific) according to the manufacturer’s instructions. Samples above the detection limit (7500 pg/mL) were set at 7500 pg/mL for statistical analysis.
# [3] = system: NHE1; parameters: method as in PMID 33804289; conditions: cited from earlier work
smiles,measurement,setting,value
"N=C(N)NC(=O)c1nc(-c2cc3cnccc3o2)c(N2CCCCCC2)nc1N [6-FPHMA, 6-furopyridine-substituted 5-(N,N-hexamethylene) amiloride]",reduction of ATP-induced YO-PRO-1 uptake into CD3+ T cells,[1],62 ± 3%
same,reduction of ATP-induced YO-PRO-1 uptake into CD4+ T cells,[1],62 ± 3%
same,reduction of ATP-induced YO-PRO-1 uptake into CD8+ T cells,[1],62 ± 4%
same,reduction of ATP-induced IL-1β compared to vehicle control,[2],56 ± 15%
same,inhibition of NHE1,[3],inhibit
